Assay results from US8765953B2, “Compounds and methods for the treatment of pain and other diseases” (Aquilus Pharmaceuticals, Inc., priority 2008, dated 2014).

System: spinal nerve ligation (SNL) mouse model
Assay: Intrathecal (i.t.) SNL-mouse model of neuropathic pain, von Frey mechanical allodynia
Type: in vivo, FVB male mice
Description: To measure the neuropathic pain inhibiting affects of the MMP inhibitors of the present invention, the spinal nerve ligation (SNL) mouse model was run on a select number of compounds. This model which began with the work of Bennet and coworkers (Bennet, G. J. et al. Pain, 33, (1988), 87-107) and was optimized by Kim and Chung (Kim, S. H.; Chung, J. M. Pain, 50, (1992), 355-363) entails first, under magnification, the removal of one-third of the transverse process and then identifying and then dissecting free the L5 spinal nerve from the adjacent L4 spinal nerve in the mouse. The L5 spinal nerve is then tightly ligated using 6.0 silk suture. The nerve injury leads to hyperalgesia which manifests itself by enhanced responses to mechanical, heat and/or cooling stimuli. In this case, mechanical hyperalgesia is tested via Von Frey monofilaments in which filaments of varying thicknesses and bending force are individually applied to the plantar surface of the foot of the mouse. The threshold force necessary for paw withdrawal decreases dramatically after the nerve surgery. Potent pain inhibitors will reverse this affect resulting in greater force needing to be applied to cause the rodent paw to withdrawal.
Following preoperative baseline (Day −2) paw threshold measurement, FVB male mice were subjected to SNL injury (Day −1). The next day (Day 0) after SNL surgery, the animals were tested for post-operative baseline threshold measurements for mechanical allodynia; and the animals were then randomly assigned to one of 3 treatment groups (see Table 9). Over the course of the study, paw withdrawal threshold of these animals was measured in response to mechanical stimulation using the von Frey Monofilament Test.
To avoid systemic effects of the MMP inhibitors, the MMP inhibitors of the present invention were delivered into the cerebral spinal fluid (CSF) space around lumbosacral spinal cord via intrathecal (i.t.) administration, with the idea of targeting MMPs in the DRG, spinal cord, and spinal CSF. Intrathecal MMP inhibitor administration could then target not only spinal cord cells but also DRG cells. Each intrathecal (i.t.) injection was carried out according to the technique of Hylden and Wilcox (Hylden J L, Wilcox G L. Eur. J. Pharmacol., 67, (1980), 313-6) 5.2 mg of each of the MMP inhibitors were first dissolved in 140 microliters of DMSO and then put into 1260 microliters of 0.5% hydroxypropyl cellulose (HPC) in water to make a fine suspension composed of compound in 10% DMSO-0.5% hydroxypropyl cellulose. 10 microliters of the mixture was injected into the intrathecal space of male FVB mice (weighing 22-25 grams each and obtained from the Jackson Laboratories, Bar Harbor, Me.), by lumbar puncture in a volume of 10 μl/mouse using a Hamilton microsyringe via a 30 gauge needle inserted between lumbar vertebrae 5 and 6. In brief, each animal was held firmly by the pelvic girdle in one hand, while the needle was inserted into the tissue on the right side of the L5 or L6 spinous process. The needle was moved forward and slipped into the groove between the spinous process and transverse process and gently moved forward to the intervertebral space at ˜10° angle. As the needle was inserted (˜0.5 cm) within the vertebral column a tail flick was evident, and the solution was then injected.
Tactile Allodynia Test. Mechanical allodynia was measured using the calibrated von Frey filaments (Semmes-Weinstein monofilaments; Stoelting, Wood Dale, Ill., U.S.A.). The plantar surface of the left injured paw of each animal was tested as described by Chaplan et al. (Journal of Neuroscience Methods, 53, (1994), 55-63). The Fifty percent paw withdrawal threshold response was determined by sequentially increasing or decreasing the stimulus strength according to the “up-down method” of Dixon (Annual Review Pharmacology Toxicology, 20, (1980), 441-462). […]

Cc1ccc(C#Cc2ccc(S(=O)(=O)N[C@H](Cc3c[nH]c4ccccc34)C(=O)O)s2)cc1 [Compound 5, (R)-3-(1H-Indol-3-yl)-2-(5-p-tolylethynyl-thiophene-2-sulfonylamino)-propionic acid]
Paw withdrawal threshold, mean, Day 5 (i.t. 10 μl/mouse daily day 1-6): 0.079 grams
Paw withdrawal threshold, mean, Day 7 (i.t. 10 μl/mouse daily day 1-6): 0.190 grams
Paw withdrawal threshold, mean, Day 1 (i.t. 10 μl/mouse daily day 1-6, testing 2 hr after first i.t. injection): 0.098 grams
Paw withdrawal threshold, mean, Day 0 Postoperative Baseline (i.t. study, post operative injury baseline, before treatment): 0.050 grams
Paw withdrawal threshold, mean, Day(-2) Pre-operative Baseline (i.t. study, testing prior to SNL injury, before treatment): 1.265 grams
